Experimental findings from PubChem BioAssay AID330 (DTP/NCI, 2004) are described below.

The experiment relates to P388 leukemia ip, CD2F1 mice, survival T/C. Kind of experiment: NCI In Vivo Anticancer Drug Screen. Data for tumor model P388 Leukemia (intraperitoneal) in CD2F1 (CDF1) mice. Particulars: endpoint: median survival time, higher = longer survival. The gist of the method:
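Mice carrying the transplanted tumor received test compound or vehicle. Survival was recorded in each group, and the value is the treated-group measurement divided by that of the vehicle-treated control group.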

The mark [1] stands for this setting: dose: 25.0 mg/kg/injection, schedule: Q01DX009 (ip), vehicle: saline with Tween-80.
Setting [2] is: dose: 50.0 mg/kg/injection, schedule: Q01DX009 (ip), vehicle: saline with Tween-80.
The mark [3] stands for this setting: dose: 100.0 mg/kg/injection, schedule: Q01DX009 (ip), vehicle: saline with Tween-80.
The mark [4] stands for this setting: dose: 50.0 mg/kg/injection, schedule: Q01DX005 (ip), vehicle: Klucel (hydroxypropylcellulose) (HPC).
Setting [5] is: dose: 100.0 mg/kg/injection, schedule: Q01DX005 (ip), vehicle: Klucel (hydroxypropylcellulose) (HPC).
Setting [6] is: dose: 200.0 mg/kg/injection, schedule: Q01DX005 (ip), vehicle: Klucel (hydroxypropylcellulose) (HPC).
Setting [7] is: dose: 50.0 mg/kg/injection, schedule: Q01DX005 (ip), vehicle: saline with Tween-80.
The mark [8] stands for this setting: dose: 100.0 mg/kg/injection, schedule: Q01DX005 (ip), vehicle: saline with Tween-80.
The mark [9] stands for this setting: dose: 50.0 mg/kg/injection, schedule: Q01DX005 (ip), vehicle: saline.
[10] abbreviates: dose: 50.0 mg/kg/injection, schedule: Q01DX009 (ip), vehicle: Klucel (hydroxypropylcellulose) (HPC).
Where [11] appears, read: dose: 100.0 mg/kg/injection, schedule: Q01DX009 (ip), vehicle: Klucel (hydroxypropylcellulose) (HPC).
The mark [12] stands for this setting: dose: 200.0 mg/kg/injection, schedule: Q01DX009 (ip), vehicle: Klucel (hydroxypropylcellulose) (HPC).
The mark [13] stands for this setting: dose: 200.0 mg/kg/injection, schedule: Q01DX005 (ip), vehicle: saline with Tween-80.
[14] abbreviates: dose: 60.0 mg/kg/injection, schedule: Q01DX005 (ip), vehicle: Klucel (hydroxypropylcellulose) (HPC).
Setting [15] is: dose: 120.0 mg/kg/injection, schedule: Q01DX005 (ip), vehicle: Klucel (hydroxypropylcellulose) (HPC).
Setting [16] is: dose: 240.0 mg/kg/injection, schedule: Q01DX005 (ip), vehicle: Klucel (hydroxypropylcellulose) (HPC).

Several values for one entry are separate records, joined by “and”; a condition that tells them apart may be missing. Equal values may be shown once. Toxic doses and inconclusive results are not listed.

Regarding `c1ccc(-c2nc(-c3ccccc3)c3ccccc3n2)cc1`, the T/C by setting is: under setting [1], 104 % of control; under setting [2], 114 % of control; under setting [3], 114 % of control.

Take `O=C([OH2+])C[N]1C(=O)C[NH][Ga]1[Cl].O=C([OH2+])C[N]1C(=O)C[NH][Ga]1[Cl]`: the T/C is, setting by setting: under setting [4], 108 % of control; under setting [5], 100 % of control; under setting [6], 98 % of control.

For `CCCCCCCCCCCCCCCCSCC(COC)COP(=O)([O-])OCC[N+](C)(C)C` (centres undefined), the T/C is, setting by setting: (dose: 1.25 mg/kg/injection, schedule: Q01DX005 (oral), vehicle: saline) 109 % of control; (dose: 2.5 mg/kg/injection, schedule: Q01DX005 (oral), vehicle: saline) 106 % of control; (dose: 5.0 mg/kg/injection, schedule: Q01DX005 (oral), vehicle: saline) 110 % of control; (dose: 10.0 mg/kg/injection, schedule: Q01DX005 (oral), vehicle: saline) 110 % of control; (dose: 20.0 mg/kg/injection, schedule: Q01DX005 (oral), vehicle: saline) 109 % of control; (dose: 40.0 mg/kg/injection, schedule: Q01DX005 (oral), vehicle: saline) 108 % of control.

Take `O=C(O)c1c(Cl)c(Cl)c(Cl)c(Cl)c1-c1c2cc(Br)c(=O)c(Br)c-2oc2c(Br)c(O)c(Br)cc12`: the T/C reads like this: under setting [7], 89 % of control; under setting [8], 90 % of control.

Turning to `CNc1nc2c(C)ccc3[nH]c(NC)nc3c-2n1`, the T/C is, setting by setting: (dose: 8.0 mg/kg/injection, schedule: Q01DX005 (ip), vehicle: Klucel (hydroxypropylcellulose) (HPC)) 95 % of control; (dose: 16.0 mg/kg/injection, schedule: Q01DX005 (ip), vehicle: Klucel (hydroxypropylcellulose) (HPC)) 100 % of control; (dose: 32.0 mg/kg/injection, schedule: Q01DX005 (ip), vehicle: Klucel (hydroxypropylcellulose) (HPC)) 90 % of control; (dose: 64.0 mg/kg/injection, schedule: Q01DX005 (ip), vehicle: Klucel (hydroxypropylcellulose) (HPC)) 88 % of control.

On to `O=C(NCc1ccccc1)c1cccnc1`, for which the T/C is 100 % of control (dose: 100.0 mg/kg/injection, schedule: Q01DX009 (ip), vehicle: saline); 98 % of control (dose: 200.0 mg/kg/injection, schedule: Q01DX009 (ip), vehicle: saline); 100 % of control (dose: 400.0 mg/kg/injection, schedule: Q01DX009 (ip), vehicle: saline).

Regarding `CC(C)(CO)N(CCO)CCO`, the T/C reads like this: under setting [9], 106 % of control; (dose: 100.0 mg/kg/injection, schedule: Q01DX005 (ip), vehicle: saline) 106 % of control; (dose: 200.0 mg/kg/injection, schedule: Q01DX005 (ip), vehicle: saline) 106 % of control.

As for `Cc1cccc2nc(-c3ccccn3)n(CCc3ccccn3)c12`, the T/C under setting [4] was 98 % of control and the T/C under setting [5] is 106 % of control.

Regarding `NC(C(=O)O)C1C=CCC1` (centres undefined), the T/C runs as follows: under setting [4], 106 % of control; under setting [5], 99 % of control.

`O=c1c(-c2ccccc2)c(O)on1/C=C1/C=CC=N1`: the T/C is 105 % of control under setting [2]; 95 % of control under setting [3]; 103 % of control (dose: 200.0 mg/kg/injection, schedule: Q01DX009 (ip), vehicle: saline with Tween-80).

As for `CC(=O)OCC#CCN1CCOCC1`, the T/C is, setting by setting: under setting [9], 124 % of control; (dose: 60.0 mg/kg/injection, schedule: Q01DX005 (ip), vehicle: suspension in saline) 102 % of control; (dose: 120.0 mg/kg/injection, schedule: Q01DX005 (ip), vehicle: suspension in saline) 100 % of control.

In the case of `CN=C1c2ccccc2C2(c3ccccc3)C1N2C` (centres undefined), the T/C is 104 % of control (dose: 100.0 mg/kg/injection, schedule: Q04DX003 (ip), vehicle: saline with Tween-80) and 100 % of control (dose: 200.0 mg/kg/injection, schedule: Q04DX003 (ip), vehicle: saline with Tween-80).

As to `Cc1ccc(C(=O)N=[N+]=[N-])o1`, the T/C reads like this: (dose: 12.5 mg/kg/injection, schedule: Q01DX009 (ip), vehicle: saline with Tween-80) 98 % of control; under setting [1], 100 % of control; under setting [2], 100 % of control.

On to `CS(=O)(=O)/C=C/c1ccc[nH]1`, for which the T/C is 98 % of control under setting [10], 99 % of control under setting [11] and 99 % of control under setting [12].

For `NC(=O)N/N=C/Cn1ccc(=O)n(C/C=N/NC(N)=O)c1=O`, the T/C was 91 % of control under setting [4], 87 % of control under setting [5] and 87 % of control under setting [6].

As to `O=c1c2cc3c(=O)n(CC#CCN4CCCCC4)c(=O)c3cc2c(=O)n1CC#CCN1CCCCC1`, the T/C is, setting by setting: under setting [7], 100 % of control; under setting [8], 100 % of control; under setting [13], 98 % of control.

Consider `Cc1cc(=O)n(-c2cccc3ccccc23)c(C)c1C(=O)O`, for which the T/C was 102 % of control under setting [7] and 94 % of control under setting [8].

In the case of `CNc1c([N+](=O)[O-])cc2[nH]c(C)nc2c1[N+](=O)[O-]`, the T/C was 103 % of control (dose: 6.25 mg/kg/injection, schedule: Q04DX003 (ip), vehicle: saline with Tween-80); 113 % of control (dose: 12.5 mg/kg/injection, schedule: Q04DX003 (ip), vehicle: saline with Tween-80); 99 % of control and 92 % of control (dose: 25.0 mg/kg/injection, schedule: Q04DX003 (ip), vehicle: saline with Tween-80).

For `O=[N+]([O-])c1ccc(C2CC3COc4ccccc4C3=N2)cc1` (centres undefined), the T/C by setting is: (dose: 18.75 mg/kg/injection, schedule: Q01DX001 (ip), vehicle: Klucel (hydroxypropylcellulose) (HPC)) 88 % of control; (dose: 37.5 mg/kg/injection, schedule: Q01DX001 (ip), vehicle: Klucel (hydroxypropylcellulose) (HPC)) 88 % of control; (dose: 75.0 mg/kg/injection, schedule: Q01DX001 (ip), vehicle: Klucel (hydroxypropylcellulose) (HPC)) 94 % of control.

For `CCN(CC)C(=O)C(F)C(F)(F)C(F)(F)C(F)(F)C(F)(F)C(F)(F)C(F)(F)F` (centres undefined), the T/C under setting [10] is 102 % of control, the T/C under setting [11] is 101 % of control and the T/C under setting [12] is 99 % of control.

On to `O=Cc1cc2c(Cl)nccc2o1`, for which the T/C was 105 % of control under setting [14], 102 % of control under setting [15] and 104 % of control under setting [16].

Turning to `Cc1cc(=O)oc2c(C)c3oc4ccncc4c3cc12`, the T/C under setting [4] was 104 % of control, the T/C under setting [5] is 110 % of control and the T/C under setting [6] is 107 % of control.

As to `CC(C)(OC(=O)N=[N+]=[N-])c1ccc(N=Nc2ccccc2)cc1`, the T/C (dose: 50.0 mg/kg/injection, schedule: Q01DX009 (ip), vehicle: saline + alcohol) is 94 % of control; the T/C (dose: 100.0 mg/kg/injection, schedule: Q01DX009 (ip), vehicle: saline + alcohol) is 98 % of control; the T/C (dose: 200.0 mg/kg/injection, schedule: Q01DX009 (ip), vehicle: saline + alcohol) was 87 % of control.

`Oc1cc2c(cc1C(c1ccc3c(c1)OCO3)N1CCCCC1)OCO2` (centres undefined): the T/C reads like this: (dose: 60.0 mg/kg/injection, schedule: Q01DX005 (ip), vehicle: saline with Tween-80) 119 % of control; (dose: 120.0 mg/kg/injection, schedule: Q01DX005 (ip), vehicle: saline with Tween-80) 118 % of control; (dose: 240.0 mg/kg/injection, schedule: Q01DX005 (ip), vehicle: saline with Tween-80) 120 % of control.

`Nc1cc2c3c(cccc3c1)C(=O)N2`: the T/C runs as follows: (dose: 100.0 mg/kg/injection, schedule: Q01DX001 (ip), vehicle: saline with Tween-80) 106 % of control; (dose: 200.0 mg/kg/injection, schedule: Q01DX001 (ip), vehicle: saline with Tween-80) 106 % of control.

In the case of `O=C(O)c1sc(-c2ccccc2)c2c1-c1ccccc1C2=O`, the T/C is 98 % of control under setting [14], 96 % of control under setting [15] and 97 % of control under setting [16].

For the compound `C=CCC12CC(COc3ccccc3C(N)=O)OC1=Nc1ccccc1NC2=O` (centres undefined), the T/C was 113 % of control under setting [7], 100 % of control under setting [8] and 99 % of control under setting [13].
